Test results taken from ChEMBL document CHEMBL6071142, “Isoalantolactone/hydroxamic acid hybrids as potent dual STAT3/HDAC inhibitors and self-assembled nanoparticles for cancer therapy” (Eur J Med Chem, 2024).
Active and inactive are the calls of the source. No cut-off for these calls is given here.

Legend:
Histone deacetylase 8 = Histone deacetylase 8 (Homo sapiens, UniProt Q9BY41); experiment: Inhibition of recombinant human HDAC8 using Boc-Lys (trifluroacetyl)-AMC as substrate preincubated with compound for 1 hr followed by substrate addition and measured after 30 mins by microplate reader assay
Histone deacetylase 8, sequence (Q9BY41 whole entry): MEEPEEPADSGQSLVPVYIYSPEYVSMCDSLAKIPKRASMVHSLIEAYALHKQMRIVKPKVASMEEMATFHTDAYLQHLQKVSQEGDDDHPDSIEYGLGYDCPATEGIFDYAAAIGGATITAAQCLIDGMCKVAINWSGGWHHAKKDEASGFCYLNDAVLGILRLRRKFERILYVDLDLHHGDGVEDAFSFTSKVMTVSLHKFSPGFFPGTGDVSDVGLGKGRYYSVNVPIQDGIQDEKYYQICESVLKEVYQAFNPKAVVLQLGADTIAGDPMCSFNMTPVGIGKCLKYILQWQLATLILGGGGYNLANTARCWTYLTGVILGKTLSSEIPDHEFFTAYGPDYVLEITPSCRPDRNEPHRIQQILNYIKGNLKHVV

[1] = target: Signal transducer and activator of transcription 1-alpha/beta (Homo sapiens, UniProt P42224); experiment: Binding affinity to STAT1 (unknown origin) assessed as dissociation constant by SPR assay
[2] = target: Signal transducer and activator of transcription 4 (Homo sapiens, UniProt Q14765); experiment: Binding affinity to STAT4 (unknown origin) assessed as dissociation constant by SPR assay
Signal transducer and activator of transcription 4, sequence (Q14765 whole entry): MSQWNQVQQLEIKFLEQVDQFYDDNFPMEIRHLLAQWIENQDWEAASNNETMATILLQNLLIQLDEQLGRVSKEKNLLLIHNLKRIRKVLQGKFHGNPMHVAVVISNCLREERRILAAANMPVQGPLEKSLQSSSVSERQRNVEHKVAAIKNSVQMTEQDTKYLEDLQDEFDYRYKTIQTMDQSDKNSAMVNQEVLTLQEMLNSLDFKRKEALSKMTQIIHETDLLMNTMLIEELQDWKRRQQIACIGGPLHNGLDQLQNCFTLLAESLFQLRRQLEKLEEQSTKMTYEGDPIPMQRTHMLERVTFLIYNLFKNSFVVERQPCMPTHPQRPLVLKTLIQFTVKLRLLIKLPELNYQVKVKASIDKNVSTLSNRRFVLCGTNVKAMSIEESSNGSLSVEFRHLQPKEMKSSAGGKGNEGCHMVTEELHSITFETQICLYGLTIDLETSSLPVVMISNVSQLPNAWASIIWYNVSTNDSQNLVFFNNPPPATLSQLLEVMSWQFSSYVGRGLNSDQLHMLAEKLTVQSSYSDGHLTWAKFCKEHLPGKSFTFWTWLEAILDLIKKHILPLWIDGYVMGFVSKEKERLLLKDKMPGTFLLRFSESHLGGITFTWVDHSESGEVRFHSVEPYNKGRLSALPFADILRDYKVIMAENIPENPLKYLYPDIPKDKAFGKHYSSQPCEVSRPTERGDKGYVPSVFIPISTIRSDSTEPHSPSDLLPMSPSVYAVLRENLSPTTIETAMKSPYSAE

A549 [3] = experiment: cells; format: functional, cell-based; conditions: Homo sapiens, A549, 72 h
Description: Antiproliferative activity against human A549 cells assessed as inhibition of cell proliferation incubated for 72 hrs by CCK-8 assay

HeLa = experiment: cells; format: functional, cell-based; conditions: Homo sapiens, 72 h
Description: Antiproliferative activity against human Hela cells assessed as inhibition of cell proliferation incubated for 72 hrs by CCK-8 assay

[4] = target: Signal transducer and activator of transcription 3 (Homo sapiens, UniProt P40763); experiment: Inhibition of STAT3 (unknown origin) in human A549 cells incubated for 4 hrs by Cellular thermal shift assay; format: cell-based
Signal transducer and activator of transcription 3, sequence (P40763 whole entry): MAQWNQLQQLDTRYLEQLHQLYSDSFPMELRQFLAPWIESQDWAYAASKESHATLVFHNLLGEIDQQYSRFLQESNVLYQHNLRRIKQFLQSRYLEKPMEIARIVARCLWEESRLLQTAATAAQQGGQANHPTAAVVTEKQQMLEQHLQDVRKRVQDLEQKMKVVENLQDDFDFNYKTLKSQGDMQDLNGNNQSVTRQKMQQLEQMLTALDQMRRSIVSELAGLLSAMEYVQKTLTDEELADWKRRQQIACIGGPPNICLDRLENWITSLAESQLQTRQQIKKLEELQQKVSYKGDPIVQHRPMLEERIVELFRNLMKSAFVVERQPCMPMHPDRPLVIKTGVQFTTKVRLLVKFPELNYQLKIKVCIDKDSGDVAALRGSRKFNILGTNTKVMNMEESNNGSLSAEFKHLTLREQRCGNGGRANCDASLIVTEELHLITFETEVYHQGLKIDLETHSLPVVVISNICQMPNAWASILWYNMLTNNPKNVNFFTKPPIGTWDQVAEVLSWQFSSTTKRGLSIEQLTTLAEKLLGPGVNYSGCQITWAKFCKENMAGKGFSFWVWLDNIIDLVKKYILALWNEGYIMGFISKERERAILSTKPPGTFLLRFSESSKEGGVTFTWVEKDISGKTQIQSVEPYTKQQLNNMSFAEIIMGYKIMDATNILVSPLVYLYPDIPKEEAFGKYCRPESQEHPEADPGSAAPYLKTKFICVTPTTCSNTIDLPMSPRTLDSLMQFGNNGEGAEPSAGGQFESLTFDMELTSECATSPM

[5] = target: Class 1 histone deacetylase (Homo sapiens) (UniProt Q13547+O15379+Q92769+Q9BY41); experiment: Inhibition of class 1 HDAC in human A549 cells assessed as increase in Ac-histone H3 level at 0.5 uM incubated for 12 hrs by Western blot analysis; format: cell-based
Class 1 histone deacetylase (Homo sapiens), sequence (O15379 whole entry, looked up): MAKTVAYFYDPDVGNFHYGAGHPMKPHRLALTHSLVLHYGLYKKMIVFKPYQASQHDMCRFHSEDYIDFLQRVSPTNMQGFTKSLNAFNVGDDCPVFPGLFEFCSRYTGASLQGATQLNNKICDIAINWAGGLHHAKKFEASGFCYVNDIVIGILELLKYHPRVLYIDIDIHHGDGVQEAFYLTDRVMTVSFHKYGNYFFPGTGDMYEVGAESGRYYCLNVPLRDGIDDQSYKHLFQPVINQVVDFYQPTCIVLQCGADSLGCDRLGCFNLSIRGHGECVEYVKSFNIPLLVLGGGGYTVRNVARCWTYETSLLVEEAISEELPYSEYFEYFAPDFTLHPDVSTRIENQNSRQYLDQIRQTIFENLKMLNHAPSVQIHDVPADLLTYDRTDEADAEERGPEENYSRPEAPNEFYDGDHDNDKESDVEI
Class 1 histone deacetylase (Homo sapiens), sequence (Q13547 whole entry, looked up): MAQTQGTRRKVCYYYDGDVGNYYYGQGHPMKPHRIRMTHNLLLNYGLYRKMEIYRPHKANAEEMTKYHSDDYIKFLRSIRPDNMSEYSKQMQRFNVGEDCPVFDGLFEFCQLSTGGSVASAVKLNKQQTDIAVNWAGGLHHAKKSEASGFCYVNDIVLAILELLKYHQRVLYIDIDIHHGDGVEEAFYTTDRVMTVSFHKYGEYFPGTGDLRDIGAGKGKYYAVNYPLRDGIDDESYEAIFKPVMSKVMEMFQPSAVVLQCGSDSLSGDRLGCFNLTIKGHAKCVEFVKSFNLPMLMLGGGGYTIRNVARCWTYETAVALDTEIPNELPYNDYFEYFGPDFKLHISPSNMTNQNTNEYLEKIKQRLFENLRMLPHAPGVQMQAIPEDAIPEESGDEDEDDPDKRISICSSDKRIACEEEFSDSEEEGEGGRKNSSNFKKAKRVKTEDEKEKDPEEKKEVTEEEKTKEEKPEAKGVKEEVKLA
Class 1 histone deacetylase (Homo sapiens), sequence (Q92769 whole entry, looked up): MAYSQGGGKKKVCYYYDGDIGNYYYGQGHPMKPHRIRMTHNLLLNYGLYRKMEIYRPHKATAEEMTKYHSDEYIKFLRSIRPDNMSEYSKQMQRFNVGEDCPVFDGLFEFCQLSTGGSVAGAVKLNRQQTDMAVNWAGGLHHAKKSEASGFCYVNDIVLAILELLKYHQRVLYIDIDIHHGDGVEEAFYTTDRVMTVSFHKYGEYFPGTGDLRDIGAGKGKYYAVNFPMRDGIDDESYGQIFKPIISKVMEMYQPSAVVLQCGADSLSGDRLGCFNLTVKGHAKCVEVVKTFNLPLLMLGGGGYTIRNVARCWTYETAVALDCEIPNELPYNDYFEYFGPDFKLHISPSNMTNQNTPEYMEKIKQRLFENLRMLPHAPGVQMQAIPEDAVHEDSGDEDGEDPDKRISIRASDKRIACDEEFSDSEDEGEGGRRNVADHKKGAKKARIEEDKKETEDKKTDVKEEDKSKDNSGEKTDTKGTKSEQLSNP
Class 1 histone deacetylase (Homo sapiens), sequence (Q9BY41 whole entry, looked up): as the sequence (Q9BY41 whole entry) above

[6] = target: Protein deacetylase HDAC6 (Homo sapiens) (UniProt Q9UBN7); experiment: Inhibition of HDAC6 in human A549 cells assessed as increase in […] level at 0.5 uM incubated for 12 hrs by Western blot analysis; format: cell-based
Protein deacetylase HDAC6 (Homo sapiens), sequence (Q9UBN7 whole entry): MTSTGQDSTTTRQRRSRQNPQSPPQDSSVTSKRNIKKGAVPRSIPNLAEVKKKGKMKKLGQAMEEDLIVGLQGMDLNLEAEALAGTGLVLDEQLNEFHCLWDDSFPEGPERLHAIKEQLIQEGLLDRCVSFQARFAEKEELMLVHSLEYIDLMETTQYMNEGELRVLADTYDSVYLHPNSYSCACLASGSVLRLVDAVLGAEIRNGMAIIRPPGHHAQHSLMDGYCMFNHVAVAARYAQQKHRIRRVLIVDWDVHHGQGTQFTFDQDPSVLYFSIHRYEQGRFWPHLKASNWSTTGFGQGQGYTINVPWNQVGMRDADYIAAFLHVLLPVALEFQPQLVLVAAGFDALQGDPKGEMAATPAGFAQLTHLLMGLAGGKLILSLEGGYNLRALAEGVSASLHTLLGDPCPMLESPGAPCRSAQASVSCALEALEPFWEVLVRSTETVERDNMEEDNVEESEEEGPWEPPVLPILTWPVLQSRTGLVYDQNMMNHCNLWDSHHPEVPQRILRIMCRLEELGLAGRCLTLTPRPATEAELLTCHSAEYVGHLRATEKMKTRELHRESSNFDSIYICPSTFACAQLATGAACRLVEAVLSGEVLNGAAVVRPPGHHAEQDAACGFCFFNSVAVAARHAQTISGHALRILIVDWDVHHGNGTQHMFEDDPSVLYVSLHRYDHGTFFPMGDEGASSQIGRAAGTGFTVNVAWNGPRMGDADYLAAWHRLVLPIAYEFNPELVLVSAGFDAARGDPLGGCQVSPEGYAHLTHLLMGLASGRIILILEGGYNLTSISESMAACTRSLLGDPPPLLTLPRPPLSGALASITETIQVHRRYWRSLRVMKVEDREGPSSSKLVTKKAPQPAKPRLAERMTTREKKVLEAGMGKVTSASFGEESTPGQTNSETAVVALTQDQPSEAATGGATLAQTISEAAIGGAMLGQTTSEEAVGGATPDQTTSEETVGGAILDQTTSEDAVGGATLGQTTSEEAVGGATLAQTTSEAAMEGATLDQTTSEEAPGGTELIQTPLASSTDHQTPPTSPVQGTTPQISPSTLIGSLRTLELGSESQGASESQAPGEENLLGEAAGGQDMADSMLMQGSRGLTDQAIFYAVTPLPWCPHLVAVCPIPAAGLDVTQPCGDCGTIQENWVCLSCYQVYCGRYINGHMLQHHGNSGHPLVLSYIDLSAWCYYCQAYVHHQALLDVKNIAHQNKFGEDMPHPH

A549 [7] = experiment: Induction of autophagy in human A549 cells transfected with mRFP-GFP-LC3 assessed as decrease in P62 protein level at 0.5 uM incubated for 12 hrs by Western blot analysis; format: functional, cell-based
A549 [8] = experiment: Induction of autophagy in human A549 cells transfected with mRFP-GFP-LC3 assessed as increase in LC3-II protein level at 0.5 uM incubated for 12 hrs by Western blot analysis; format: functional, cell-based
A549 [9] = experiment: Induction of autophagy in human A549 cells transfected with mRFP-GFP-LC3 assessed as increase in yellow puncta at 0.5 uM incubated for 24 hrs by confocal microscopic analysis; format: functional, cell-based
A549 [10] = experiment: Induction of apoptosis in human A549 cells assessed as early apoptotic cells at 2 uM incubated for 24 hrs by Annexin V-FITC/PI staining based flow cytometric analysis (reference value: 1.53%); format: functional
A549 [11] = experiment: Induction of apoptosis in human A549 cells assessed as necrotic cells at 2 uM incubated for 24 hrs by Annexin V-FITC/PI staining based flow cytometric analysis (reference value: 1.20%); format: functional
A549 [12] = experiment: Induction of apoptosis in human A549 cells at 4 uM incubated for 24 hrs by Annexin V-FITC/PI staining based flow cytometric analysis; format: functional
A549 [13] = experiment: In vivo antitumor activity against human A549 cells xenografted in female BALB/c nu/nu mouse assessed as tumor volume at 5 mg/kg, iv administered every 3 days and measured on 18 day relative to control; format: functional; conditions: time 3 day
[14] = Toxicity in female BALB/c nu/nu mouse xenografted with human A549 cells assessed as effect on body weight at 5 mg/kg, iv and measured regularly; format: organism-based; conditions: in vivo
[15] = Toxicity in female BALB/c nu/nu mouse xenografted with human A549 cells assessed as effect on lung at 2.5 mg/kg, iv by H and E staining based analysis; format: organism-based; conditions: in vivo
[16] = Toxicity in female BALB/c nu/nu mouse xenografted with human A549 cells assessed as effect on kidney at 2.5 mg/kg, iv by H and E staining based analysis; format: organism-based; conditions: in vivo
[17] = Toxicity in female BALB/c nu/nu mouse xenografted with human A549 cells assessed as effect on kidney at 5 mg/kg, iv by H and E staining based analysis; format: organism-based; conditions: in vivo
[18] = Toxicity in female BALB/c nu/nu mouse xenografted with human A549 cells assessed as effect on spleen at 2.5 mg/kg, iv by H and E staining based analysis; format: organism-based; conditions: in vivo
[19] = Toxicity in female BALB/c nu/nu mouse xenografted with human A549 cells assessed as effect on spleen at 5 mg/kg, iv by H and E staining based analysis; format: organism-based; conditions: in vivo
HepG2 = experiment: Anticancer activity against human HepG2 cells assessed as cell viability incubated for 72 hrs using self assembled nanoparticle as source of compound by CCK-8 assay; format: functional, cell-based; conditions: HepG2, 72 h
A549 [20] = experiment: In vivo antitumor activity against human A549 cells xenografted in female BALB/c nu/nu mouse assessed as tumor volume at 5 mg/kg, iv administered every 3 days using self assembled nanoparticle as source of compound and measured on 18 day relative to control; format: functional; conditions: time 3 day
[21] = Toxicity in female BALB/c nu/nu mouse xenografted with human A549 cells assessed as effect on body weight at 5 mg/kg, iv using self assembled nanoparticle as source of compound and measured regularly; format: organism-based; conditions: in vivo
[22] = Drug uptake in human A549 cells assessed as increase in red fluorescence incubated for 4 hrs using chlorine e6 loaded self assembled nanoparticle as source of compound by fluorescence based flow cytometric analysis; format: ADME, cell-based; conditions: a549, 4 h
[23] = Biodistribution in heart of nude mouse xenografted with A549 cells at 5 mg/kg, iv using chlorine e6 loaded self-assembled nanoparticle as source of compound incubated for 24 hrs by ex-vivo fluorescence based LC-MS/MS analysis; format: ADME, organism-based
[24] = Biodistribution in kidney of nude mouse xenografted with A549 cells at 5 mg/kg, iv using chlorine e6 loaded self-assembled nanoparticle as source of compound incubated for 24 hrs by ex-vivo fluorescence based LC-MS/MS analysis; format: ADME, organism-based
HCT-116 = experiment: cells; conditions: Homo sapiens, HCT-116, 72 h
Description: Antiproliferative activity against human HCT-116 cells assessed as inhibition of cell proliferation incubated for 72 hrs by CCK-8 assay

A549 [25] = experiment: Induction of autophagy in human A549 cells assessed as upregulation of LC3-II at 4 uM incubated for 12 hrs by Western blot analysis
A549 [26] = experiment: In vivo antitumor activity against human A549 cells xenografted in female BALB/c nu/nu mouse assessed as Ac-Histone H3 at 5 mg/kg, iv administered every 3 days for 18 days by Western blotting analysis; conditions: time 3.0 day

C=C1C(=O)O[C@@H]2C[C@@]3(C)CC[C@@H](OC(=O)[C@H](C)NC(=O)c4ccc(/C=C/C(=O)NO)cc4)C(=C)[C@@H]3C[C@H]12
IC50 (Histone deacetylase 8): 1420 nM
Kd [1]: Not Active
Kd [2]: Not Active
IC50 (A549 [3]): 120 nM
IC50 (HeLa): 130 nM
inhibition [4]: Active
inhibition [5]: Active
inhibition [6]: Active
Activity (A549 [7]): Active
Activity (A549 [8]): Active
Activity (A549 [9]): Active
Activity (A549 [10]): 4.07%
Activity (A549 [11]): 1.59%
Activity (A549 [12]): 40%
Activity (A549 [13]): 47.3%
Activity [14]: Non-Toxic
Activity [15]: Non-Toxic
Activity [16]: Non-Toxic
Activity [17]: Non-Toxic
Activity [18]: Non-Toxic
Activity [19]: Non-Toxic
IC50 (HepG2): 170 nM
Activity (A549 [20]): 19.9%
Activity [21]: Non-Toxic
Drug uptake [22]: Active
Drug uptake [23]: Active
Drug uptake [24]: Active
IC50 (HCT-116): 40 nM
Activity (A549 [25]): Active
Activity (A549 [26]): Active
